# Assays:
# Staphylococcus aureus = assay: Antimicrobial screening by agar dilution, Staphylococcus aureus; assay type: cell-based; settings: after 10, 20, 40 and 60 minutes at all dilutions 1:100, 1:200, 1:400, 1:800
# Description: (§1) The antibacterial properties of the synthesized compound 2-benzo-[3,4-b]quinolino-[b,g]indeno[1′,2′:3,4]fluoreno-[1,2-d]oxonine-24-chloro-5,11,16,21-tetraone were studied by the method of agar dilution. Test solutions of each compound was prepared in concentration of 1% using dimethylformamide as a solvent then they are diluted in physiological solution to obtain the final experimental dilutions 1:100, 1:200, 1:400, 1:800. The effect of these substances are compared with furacillin in a controllable study. The testing microbes used were gram positive bacteria Staphylococcus aureus, gram negative bacteria Pseudomonas aeruginosa and Escherichia coli and Candida albicans fungus. The experiments used for this survey were meat-pentonlu agar (EPA) for cultivation of bacteria and Saburo environment for the fungus. Each experiment used 1 mL of test solution on each plate […]. Two drops of emulsified with microbes feel were added. All experimental samples were taken from the agar after 10, 20, 40, 60 minutes in the environment on the basis of Patrk planted. The bacteria were cultivated at a temperature of 37° C. for 1 day and the mushroom was kept in a thermostat for […] at a temperature of 28° C. Then results were checked.
# Candida albicans = assay: Antimicrobial screening by agar dilution, Candida albicans; assay type: cell-based; settings: after 10, 20, 40 and 60 minutes at all dilutions 1:100, 1:200, 1:400, 1:800
# Description: as §1
# Escherichia coli = assay: Antimicrobial screening by agar dilution, Escherichia coli; assay type: cell-based; settings: after 10, 20, 40 and 60 minutes at all dilutions 1:100, 1:200, 1:400, 1:800
# Description: as §1
# Pseudomonas aeruginosa = assay: Antimicrobial screening by agar dilution, Pseudomonas aeruginosa; assay type: cell-based; settings: after 10, 20, 40 and 60 minutes at all dilutions 1:100, 1:200, 1:400, 1:800
# Description: as §1
compound,measurement,setting,value
"O=C1Oc2nc3ccc(Cl)cc3cc2-c2c(c3c4ccccc4c(=O)c3c3c2c(=O)c2ccccc23)C(=O)c2ccccc21 [2-benzo-[3,4-b]quinolino-[b,g]indeno[1′,2′:3,4]fluoreno-[1,2-d]oxonine-24-chloro-5,11,16,21-tetraone]","inhibition activity, Staphylococcus aureus",Staphylococcus aureus,highest inhibition activity
same,"inhibition activity, Candida albicans",Candida albicans,highest inhibition activity
same,"inhibition activity, Escherichia coli",Escherichia coli,highest inhibition activity
same,melting point,,241 °C
same,"inhibition activity, Pseudomonas aeruginosa",Pseudomonas aeruginosa,highest inhibition activity

# — patent publication US11932651B1, “2-benzo-[3,4-B]quinolino-[b,g]indeno[1′,2′:3,4]fluoreno-[1,2-d]oxonine-24-chloro-5,11,16,21-tetraone as an antimicrobial compound” (KING FAISAL UNIVERSITY, priority 2023, dated 2024)
